Experimental data reported in PMC11217338 (Frontiers in Endocrinology, 2024).

Target: T1, rat PXR (rPXR) (Rattus norvegicus, UniProt Q9R1A7)
T1 construct: gene Nr1i2
T1 sequence (Q9R1A7 143-431 limits assumed): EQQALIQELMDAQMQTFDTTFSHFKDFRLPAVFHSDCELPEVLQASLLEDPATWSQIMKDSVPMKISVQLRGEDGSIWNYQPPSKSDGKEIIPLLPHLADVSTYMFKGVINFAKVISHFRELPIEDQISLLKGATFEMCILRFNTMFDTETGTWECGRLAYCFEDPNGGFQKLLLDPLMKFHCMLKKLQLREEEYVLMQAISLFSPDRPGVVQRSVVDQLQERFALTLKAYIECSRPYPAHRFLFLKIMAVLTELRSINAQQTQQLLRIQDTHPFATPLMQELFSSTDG
Assay: GAL4-LBD luciferase reporter assay in HepG2 cells, […] CBD
Assay type: cell-based

C=C(C)[C@@H]1CCC(C)=C[C@H]1c1c(O)cc(CCCCC)cc1O [CBD, Cannabidiol]
GAL4-LBD luciferase reporter assay in HepG2 cells, 10 μM CBD: Except for PXRs, CBD had little effect on activation of the other tested nuclear receptors
